Legend:
[1] = system: Human hepatic stellate cells; test: Active human hepatic stellate cell dedifferentiation test (decrease in ACTA2 mRNA expression); type: cell-based; details: 3 days differentiation then 2 days with compound, read-out: IC50 (rate of decrease in ACTA2 mRNA expression)
Method: Human hepatic stellate cells (manufactured by ScienCell Research Laboratories, Inc., 5300) were suspended in DMEM containing 10% FBS and […] penicillin/streptomycin/amphotericin B to prepare a cell suspension of 0.5×10^5 cells/mL, which was regarded as cells at the start of differentiation. The cells at the start of differentiation were dispensed at 1 mL/well to a 12-well plate and cultured, for differentiation, for 3 days in a 5% CO2 incubator (37° C.).
The culture solution in each well was removed, and DMEM containing 10% FBS and 1% penicillin/streptomycin/amphotericin B supplemented with a test compound dissolved in DMSO (final DMSO concentration: 0.1%) was added at 1 mL/well. The resultant was further cultured for 2 days in a 5% CO2 incubator (37° C.). In Test Example 4, the same reagents as in Test Example 1 were used unless otherwise specified.
RNA in the cultured cells was extracted using NucleoSpin® RNA (manufactured by Takara Bio Inc., U0955C), and cDNA was further synthesized from the extracted RNA using Prime Script™ RT reagent Kit with gDNA Eraser (manufactured by Takara Bio Inc., RR047A). Real time PCR was performed using the synthesized cDNA, various primers and TB Green® Premix Ex Taq™ II (manufactured by Takara Bio Inc., RR820A) and using PCR Thermal Cycler Dice Real Time (manufactured by Takara Bio Inc., System Code TP910, Model Code TP900). The primers used were actin alpha 2, smooth muscle (ACTA2) primer (manufactured by Takara Bio Inc., HA136273) and glyceraldehyde-3-phosphate dehydrogenase (GAPDH) primer (manufactured by Takara Bio Inc., HA067812).
The amplification curve of PCR was analyzed by the comparative Ct method. The expression level of ACTA2 mRNA was corrected with the expression level of GAPDH mRNA. An ACTA2 mRNA expression level when DMSO was added instead of the test compound was defined as 100%, and an ACTA2 mRNA expression level in the cells at the start of differentiation was defined as 0%. The rate of decrease in ACTA2 mRNA expression by the test compound was calculated according to the following expression.
Rate of decrease in ACTA2 mRNA expression (%)=[1−{(ACTA2 mRNA expression level in the case of adding the test compound)−(ACTA2 mRNA expression level in the cells at the start of differentiation)}/{(ACTA2 mRNA expression level in the case of adding DMSO)−(ACTA2 mRNA expression level in the cells at the start of differentiation)}]×100
An IC50 value was calculated from the rate of decrease in ACTA2 mRNA expression by the test compound. A: IC50<10 nM, B: 10 nM≤IC50<50 nM, C: 50 nM≤IC50<100 nM, or D: IC50≥100 nM.

[2] = Transcellular transport test using Caco2 cell; type: in vitro ADME; details: human, Caco-2; Caco2 monolayer, A-to-B, 10 μM compound, pH 7.4, 90 minutes
Method: Caco2 cells (purchased from ATCC) were cultured in DMEM medium (Thermo Fisher Scientific, Inc., 11965) containing 10% FBS (Thermo Fisher Scientific, Inc., 10082) and 1% penicillin/streptomycin/amphotericin B (Thermo Fisher Scientific, Inc., 15240). A transcellular transport test was carried out in accordance with MultiScreen Caco2 Drug Transport Assembly in a 96-well system (Application Note AN1727EN, MultiScreen Caco-2 Assay System, Merck) by partially modifying it. The Caco2 cells were inoculated at a cell density of 4×10^4 cells/well onto a micropore polycarbonate insert of a 96-well plate (Merck, Millcell-96 culture insert plate 0.4 μm pore size, well membrane area=0.11 cm^2, PSHT004S5) and cultured for 20 to 22 days, and the resulting monolayer was used in the transcellular transport test. The medium of the inoculated cells was replaced with a fresh one every 3 to 4 days.
Apical-to-basolateral (A-to-B) transport in the Caco2 cell monolayer membrane was performed by using HBSS (Thermo Fisher Scientific, Inc., 14025) medium (pH=7.4) containing 20 mM HEPES (Thermo Fisher Scientific, Inc., 15630), and adding HEPES-containing HBSS medium containing 10 μM compound (a 10 mM solution of the compound in DMSO was added at a 1000-fold dilution; final DMSO concentration: 0.1%) at 75 μL/well to the apical side and HEPES-containing HBSS medium supplemented with no compound at 250 μL/well to the basolateral side, followed by culture at 37° C. for 90 minutes. After culture, a 100 μL aliquot was collected from the basolateral side, and the concentration of a permeated compound was measured by LC-MS/MS under measurement conditions mentioned later. Papp (apparent permeability; cm/sec) was calculated from the determined concentration. Papp was determined according to the expression given below by calculating the slope (dA/dt; nmol/sec) of a straight line drawn between two points 0 minutes and zero amount of the compound in a graph plotted with an assay time (90 min) on the abscissa against the amount of the compound in the solution on the permeated side on the ordinate. As for an assay concentration, the concentration in the compound in the HEPES-containing HBSS medium containing the added compound was measured by UV-HPLC under measurement conditions mentioned later.
Papp (cm/sec)=C0×S×(dA/dt)
C0: assay concentration, S: plate membrane area=0.11 cm^2

SMILES | IC50 [1] [nM] | Papp A→B at 90 min, 10 μM [2] [×10⁻⁶ cm/s]
O=C(O)C[C@H](NC(=O)CNC(=O)c1cc(NC2=NCC(F)CN2)c2cn[nH]c2c1)c1cc(C(F)(F)F)cc(C(F)(F)F)c1 (stereo partly drawn) [Example 7-(b), (3S)-3-(3,5-bis(trifluoromethyl)phenyl)-3-(2-(4-((5-fluoro-1,4,5,6-tetrahydropyrimidin-2-yl)amino)-1H-indazole-6-carboxamido)acetamido)propanoic acid] | < 10 | 0.5 to 1
O=C(O)C[C@H](NC(=O)CNC(=O)c1cc(NC2=NCC(F)CN2)c2cn[nH]c2c1)c1cc(-n2cccn2)cc(C(F)(F)F)c1 (stereo partly drawn) [Example 8-(b), (3S)-3-(3-(1H-pyrazol-1-yl)-5-(trifluoromethyl)phenyl)-3-(2-(4-((5-fluoro-1,4,5,6-tetrahydropyrimidin-2-yl)amino)-1H-indazole-6-carboxamido)acetamido)propanoic acid] | 50 to 100 | 0.5 to 1
O=C(O)C[C@H](NC(=O)CNC(=O)c1cc(NC2=NCC(F)CN2)c2cn[nH]c2c1)c1cccc(C(F)(F)F)c1F (stereo partly drawn) [Example 9-(b), (3S)-3-(2-(4-((5-fluoro-1,4,5,6-tetrahydropyrimidin-2-yl)amino)-1H-indazole-6-carboxamido)acetamido)-3-(2-fluoro-3-(trifluoromethyl)phenyl)propanoic acid] | 10 to 50 | > 1
O=C(O)C[C@H](NC(=O)CNC(=O)c1cc(NC2=NCC(F)CN2)c2cn[nH]c2c1)c1cccc(C(F)(F)F)c1Cl (stereo partly drawn) [Example 10-(b), (3S)-3-(2-chloro-3-(trifluoromethyl)phenyl)-3-(2-(4-((5-fluoro-1,4,5,6-tetrahydropyrimidin-2-yl)amino)-1H-indazole-6-carboxamido)acetamido)propanoic acid] | ≥ 100 | > 1
O=C(O)C[C@H](NC(=O)CNC(=O)c1cc(NC2=NCC(F)CN2)c2cn[nH]c2c1)c1cc(C(F)(F)F)ccc1F (stereo partly drawn) [Example 11-(b), (3S)-3-(2-(4-((5-fluoro-1,4,5,6-tetrahydropyrimidin-2-yl)amino)-1H-indazole-6-carboxamido)acetamido)-3-(2-fluoro-5-(trifluoromethyl)phenyl)propanoic acid] | < 10 | > 1
O=C(O)C[C@H](NC(=O)CNC(=O)c1cc(NC2=NCC(F)CN2)c2cn[nH]c2c1)c1cc(C(F)(F)F)ccc1Cl (stereo partly drawn) [Example 12-(b), (3S)-3-(2-chloro-5-(trifluoromethyl)phenyl)-3-(2-(4-((5-fluoro-1,4,5,6-tetrahydropyrimidin-2-yl)amino)-1H-indazole-6-carboxamido)acetamido)propanoic acid] | 10 to 50 | > 1
O=C(O)C[C@H](NC(=O)CNC(=O)c1cc(NC2=NCC(F)CN2)c2cn[nH]c2c1)c1ccc(F)c(C(F)(F)F)c1 (stereo partly drawn) [Example 13-(b), (3S)-3-(2-(4-((5-fluoro-1,4,5,6-tetrahydropyrimidin-2-yl)amino)-1H-indazole-6-carboxamido)acetamido)-3-(4-fluoro-3-(trifluoromethyl)phenyl)propanoic acid] | 10 to 50 | > 1
Cc1ccc([C@H](CC(=O)O)NC(=O)CNC(=O)c2cc(NC3=NCC(F)CN3)c3cn[nH]c3c2)cc1C(F)(F)F (stereo partly drawn) [Example 14-(b), (3S)-3-(2-(4-((5-fluoro-1,4,5,6-tetrahydropyrimidin-2-yl)amino)-1H-indazole-6-carboxamido)acetamido)-3-(4-methyl-3-(trifluoromethyl)phenyl)propanoic acid] | < 10 | > 1
O=C(O)C[C@H](NC(=O)CNC(=O)c1cc(NC2=NCC(F)CN2)c2cn[nH]c2c1)c1cc(Cl)c(F)c(C(F)(F)F)c1 (stereo partly drawn) [Example 15-(b), (3S)-3-(3-chloro-4-fluoro-5-(trifluoromethyl)phenyl)-3-(2-(4-((5-fluoro-1,4,5,6-tetrahydropyrimidin-2-yl)amino)-1H-indazole-6-carboxamido)acetamido)propanoic acid] | < 10 | > 1
COc1ccc([C@H](CC(=O)O)NC(=O)CNC(=O)c2cc(NC3=NCC(F)CN3)c3cn[nH]c3c2)cc1Br (stereo partly drawn) [Example 16-(b), (3S)-3-(3-bromo-4-methoxyphenyl)-3-(2-(4-((5-fluoro-1,4,5,6-tetrahydropyrimidin-2-yl)amino)-1H-indazole-6-carboxamido)acetamido)propanoic acid] | < 10 | > 1
O=C(O)C[C@H](NC(=O)CNC(=O)c1cc(NC2=NCC(F)CN2)c2cn[nH]c2c1)c1cc(Cl)cc(Cl)c1 (stereo partly drawn) [Example 17-(b), (3S)-3-(3,5-dichlorophenyl)-3-(2-(4-((5-fluoro-1,4,5,6-tetrahydropyrimidin-2-yl)amino)-1H-indazole-6-carboxamido)acetamido)propanoic acid] | 10 to 50 | > 1
O=C(O)C[C@H](NC(=O)CNC(=O)c1cc(NC2=NCC(F)CN2)c2cn[nH]c2c1)c1cc(Cl)cc(Br)c1 (stereo partly drawn) [Example 18-(b), (3S)-3-(3-bromo-5-chlorophenyl)-3-(2-(4-((5-fluoro-1,4,5,6-tetrahydropyrimidin-2-yl)amino)-1H-indazole-6-carboxamido)acetamido)propanoic acid] | < 10 | > 1
O=C(O)C[C@H](NC(=O)CNC(=O)c1cc(NC2=NCC(F)CN2)c2cn[nH]c2c1)c1cc(Br)cc(Br)c1 (stereo partly drawn) [Example 19-(b), (3S)-3-(3,5-dibromophenyl)-3-(2-(4-((5-fluoro-1,4,5,6-tetrahydropyrimidin-2-yl)amino)-1H-indazole-6-carboxamido)acetamido)propanoic acid] | < 10 | > 1
O=C(O)C[C@H](NC(=O)CNC(=O)c1cc(NC2=NCC(F)CN2)c2cn[nH]c2c1)c1cc(Br)cc(I)c1 (stereo partly drawn) [Example 20-(b), (3S)-3-(3-bromo-5-iodophenyl)-3-(2-(4-((5-fluoro-1,4,5,6-tetrahydropyrimidin-2-yl)amino)-1H-indazole-6-carboxamido)acetamido)propanoic acid] | < 10 | > 1
O=C(O)C[C@H](NC(=O)CNC(=O)c1cc(NC2=NCC(F)CN2)c2cn[nH]c2c1)c1cc(Cl)cc(I)c1 (stereo partly drawn) [Example 21-(b), (3S)-3-(3-chloro-5-iodophenyl)-3-(2-(4-((5-fluoro-1,4,5,6-tetrahydropyrimidin-2-yl)amino)-1H-indazole-6-carboxamido)acetamido)propanoic acid] | 10 to 50 | > 1

— patent publication US20230192661A1, “1, 4, 5, 6-TETRAHYDROPYRIMIDINE-2-AMINE DERIVATIVE” (UBE Corporation, priority 2020, published 2023)
